# Reference: a melting point compilation (Tetko et al.; mined from patent text by program, amines drawn as free bases though some values may be those of a salt)
row,melting point [°C],SMILES
1,63,CC(C)COC[C@H](CC(C)C)NC(=O)[C@H]1O[C@@H]1C(=O)O
2,153 to 157,CCCc1nc(C(O)C(C)C)c(C(N)=O)n1Cc1ccc(-c2ccccc2-c2nnn[nH]2)cc1 (centres undefined)
3,70,O=C(O)CCCCOc1cccc(CNC(=O)C2Cc3ccccc3N2S(=O)(=O)c2ccc(-c3cccc(C(F)(F)F)c3)cc2)c1 (centres undefined)
4,332 to 334,O=C1Nc2cnc(N3CCN(c4ccccn4)CC3)nc2S/C1=C/c1ccc([N+](=O)[O-])cc1
5,103 to 106,CSc1ccccc1C(=N)N1CCN(CCc2cc3c(cc2Cl)NC(=O)C3)CC1
6,240,c1ccc2c(c1)c(-c1cc3nccnc3[nH]1)cn2CCCN1CCCCC1
7,149 to 150,OC(COc1ccc(-n2cncn2)cc1)CN1CCN(c2ccc(F)cc2)CC1 (centres undefined)
8,123 to 124,Cc1cnn(CC(=O)O)c1OCCCc1cn(-c2ccc(C(F)(F)F)cn2)nc1C(C)C
9,79 to 81,COC(=O)C1=C(SCc2ccc(OC)cc2)C2=C(CC=CC=C2)CC1
10,139 to 140,Cn1nc(Oc2ccc([N+](=O)[O-])c([N+](=O)[O-])c2)c(Cl)c1C(F)(F)F
11,83 to 85,O=C(Nc1ccccc1N1CCc2ccccc21)C1CC1
12,131,CNC(=O)c1cccc(NC(=O)Cc2cccc(C)c2)c1
13,134 to 135,Cc1nnc(CNc2c(C)cccc2C)o1
14,134 to 142,Cc1cccc2sc(Sc3ccc4c(c3)CC[C@H]3N(C)C(=O)CC[C@]43C)nc12
15,233 to 235,COC(=O)C1Cc2c([nH]c3ccccc23)C(c2ccc(O)cc2)N1 (centres undefined)
16,151 to 153,Cc1ccc(C(=O)Nc2ccc(CN3CCCCC3)c(C(F)(F)F)c2)cc1Br
17,107 to 108,C=CCSc1nsc(S)n1
18,201 to 203,COc1ncc(-c2ccc3nnn(Cc4ccc5ncccc5c4)c3n2)cn1
19,151 to 153,CN(C)c1ccc(-c2ccnc3c(C(=O)c4cccs4)cnn23)cc1NC(=O)c1ccncc1
20,178 to 182,Oc1ccc(-c2ccc(C(F)(F)F)cc2)cn1

row,melting point [°C],SMILES
1,192 to 193,Cc1ccc(-c2ccc3c(c2)C=C(C(=O)Nc2ccc(CN4CCCCC4)cc2)CCC3)cc1
2,205 to 206,Cc1ccc(S(=O)(=O)OC[C@H]2COc3cc(F)c4c(c3O2)CC(=O)N4)cc1
3,120 to 121,CC(=O)SCCC(=O)N1N=C(c2ccc(C(F)(F)F)cc2)SC1C(=O)OCc1ccccc1 (centres undefined)
4,244 to 245,CC(C)c1cc(C(=O)Nc2cccc(C(=O)O)c2)oc1C(C)C
5,250 to 254,COC(=O)c1cn(-c2ccc(F)cc2)c(-c2ccc(Cl)cc2)cc1=O
6,> 250,CCOC(=O)c1c2c(n(CC(N)=O)c1C)C(=O)C(=O)c1ccc(Br)cc1-2
7,72 to 78,CCCCCCCCCCCOCCCN=C=O
8,127,Cc1ccc(S(=O)(=O)N2CCCC2c2ccc(F)c(F)c2)cc1 (racemic)
9,126 to 128,COc1cc(CC#N)ccc1OCCOc1ccc(F)cc1
10,90 to 91,Cc1cc2c(c(C)c1Br)C(c1ccc(C(C)C)cc1)CO2 (centres undefined)
11,159 to 160,C=CCC(CC=C)C(=O)O[C@H]1C[C@H](O)C=C2C=C[C@H](C)[C@H](CC[C@@H]3C[C@@H](O)CC(=O)O3)[C@H]21
12,185 to 187,CCOCc1nc2c(N)nc3cc(-c4cccc(C(=O)N5CCOCC5)c4)cnc3c2n1CC(C)C
13,92 to 93,Cc1cc(C(=O)Nc2ccccc2)c(C)o1
14,360,Cn1c(=O)c2c3oc4ccccc4oc3c3[nH]c4cc(O)ccc4c3c2c1=O
15,175 to 176,COC(=S)NCc1cn(-c2cc(F)c(N3CCC(=O)CC3)c(F)c2)nn1
16,228,Cc1cc(/C=C/C(=O)O)c(C)c([N+](=O)[O-])c1
17,50 to 51,CCOC(=O)c1ccc(OCCSc2ccccc2)cc1
18,179 to 181,CNC(=O)[C@H]1CN(c2cc(F)c(N3CCOCC3)c(F)c2)C(=O)O1
19,66 to 67,CC(C)OC(=O)NCNCN=O
